The results in this text go back to patent US11834453B2, “Substituted pyrimido[5,4-d]pyrimidines as HER2 inhibitors” (Array BioPharma Inc., priority 2020, dated 2023).

Molecules are shown by their SMILES. Where two headings read alike, the source gives them in different places. Bounds are passed on as bounds.

Assay [1] addresses ErbB2 insYVMA (HER2-YVMA, SEQ ID NO: 2) (Homo sapiens, UniProt P04626, INS775YVMA/P1170A). Briefly: biochemical. The conditions noted are these: ErbB2 insYVMA enzyme assay.
For assay [2], the target named is ErbB2 WT (Homo sapiens (Human), UniProt P04626). Description: ErbB enzyme assay (CisBio HTRF KinEASE-TK), Assay 2. The format is biochemical. The method, boiled down:
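ErbB2 phosphorylates 250 nM biotin-TK substrate at 1 mM ATP in 25 mM HEPES pH 7.4, 10 mM MgCl2, 0.01% Triton X-100 and 2% DMSO, for 30 min at 22 °C. Product is detected by HTRF with Sa-XL665 and TK-Ab-Cryptate. Percent of control is set by DMSO-only wells and pre-quenched wells.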

Assay [3] has as its target EGFR (Homo sapiens (Human), UniProt P00533). Description: ErbB enzyme assay (CisBio HTRF KinEASE-TK), Assay 3. The format is biochemical. The method, boiled down: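 Kinase incubated 30 min at 22 °C with 250 nM biotinylated TK substrate, 1 mM ATP and serially diluted compound in 25 mM HEPES pH 7.4, 10 mM MgCl2, 0.01% Triton X-100, 2% DMSO. Phosphorylation read by HTRF (Sa-XL665/TK-Ab-Cryptate); IC50 from 4-parameter fit of percent of control.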
A general note: In TR-FRET formats the signal depends on donor and acceptor labels being close together.

The target of assay [4] is ErbB2 with Exon 20 YVMA insertion (HER2-YVMA) (Homo sapiens (Human), UniProt P04626, INS775YVMA). Briefly: Cellular phosphorylation assay, constitutive ErbB2 phosphorylation (Y1196) in engineered NIH 3T3 cells, Assay 4. The format is cell-based. The method, boiled down:
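Engineered NIH 3T3 cells expressing HER2-YVMA treated with compounds 1 h at 37 °C, then formaldehyde-fixed and methanol-permeabilized. pErbB2 Y1196 detected by in-cell infrared immunofluorescence, normalized to GAPDH. IC50 from the normalized curves.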

For assay [5], the target named is EGFR wild type (EGFR WT) (Homo sapiens (Human), UniProt P00533). Briefly: Cellular phosphorylation assay, EGF-stimulated EGFR phosphorylation in engineered NIH 3T3 cells, Phospho-EGFR DuoSet IC ELISA, Assay 5. The format is cell-based. As for the experimental part:
NIH 3T3 cells were engineered to express EGFR wild type (EGFR WT; Assay 5, no footnote) with constructs obtained from GenScript and grown in DMEM supplemented with 10% fetal bovine serum and 15 μg/ml blasticidin. Cells were plated in 96-well plates at 20,000 cells/well and allowed to attach overnight at 37° C./5% CO2. Serially diluted compounds were added to the plates for 1 hour at 37° C./5% CO2. EGFR WT cells were stimulated with 100 ng/ml rEGF for an additional 10 minutes at 37° C./5% CO2. After compound incubation, medium was removed from the cells, which were then lysed in 100 μL/well lysis buffer according to the manufacturer's protocol (R&D Systems, DYC1095, Human Phospho-EGFR DuoSet IC ELISA). Same protocol was followed to determine the total levels of phospho-EGFR by measuring the optical density of each well using a VersaMax microplate reader. Curves were then generated and IC50 values calculated.
(In general: In an ELISA, binding on a coated surface is turned into a signal by an enzyme label.)

Chain of ErbB2 WT (P04626 23-1255): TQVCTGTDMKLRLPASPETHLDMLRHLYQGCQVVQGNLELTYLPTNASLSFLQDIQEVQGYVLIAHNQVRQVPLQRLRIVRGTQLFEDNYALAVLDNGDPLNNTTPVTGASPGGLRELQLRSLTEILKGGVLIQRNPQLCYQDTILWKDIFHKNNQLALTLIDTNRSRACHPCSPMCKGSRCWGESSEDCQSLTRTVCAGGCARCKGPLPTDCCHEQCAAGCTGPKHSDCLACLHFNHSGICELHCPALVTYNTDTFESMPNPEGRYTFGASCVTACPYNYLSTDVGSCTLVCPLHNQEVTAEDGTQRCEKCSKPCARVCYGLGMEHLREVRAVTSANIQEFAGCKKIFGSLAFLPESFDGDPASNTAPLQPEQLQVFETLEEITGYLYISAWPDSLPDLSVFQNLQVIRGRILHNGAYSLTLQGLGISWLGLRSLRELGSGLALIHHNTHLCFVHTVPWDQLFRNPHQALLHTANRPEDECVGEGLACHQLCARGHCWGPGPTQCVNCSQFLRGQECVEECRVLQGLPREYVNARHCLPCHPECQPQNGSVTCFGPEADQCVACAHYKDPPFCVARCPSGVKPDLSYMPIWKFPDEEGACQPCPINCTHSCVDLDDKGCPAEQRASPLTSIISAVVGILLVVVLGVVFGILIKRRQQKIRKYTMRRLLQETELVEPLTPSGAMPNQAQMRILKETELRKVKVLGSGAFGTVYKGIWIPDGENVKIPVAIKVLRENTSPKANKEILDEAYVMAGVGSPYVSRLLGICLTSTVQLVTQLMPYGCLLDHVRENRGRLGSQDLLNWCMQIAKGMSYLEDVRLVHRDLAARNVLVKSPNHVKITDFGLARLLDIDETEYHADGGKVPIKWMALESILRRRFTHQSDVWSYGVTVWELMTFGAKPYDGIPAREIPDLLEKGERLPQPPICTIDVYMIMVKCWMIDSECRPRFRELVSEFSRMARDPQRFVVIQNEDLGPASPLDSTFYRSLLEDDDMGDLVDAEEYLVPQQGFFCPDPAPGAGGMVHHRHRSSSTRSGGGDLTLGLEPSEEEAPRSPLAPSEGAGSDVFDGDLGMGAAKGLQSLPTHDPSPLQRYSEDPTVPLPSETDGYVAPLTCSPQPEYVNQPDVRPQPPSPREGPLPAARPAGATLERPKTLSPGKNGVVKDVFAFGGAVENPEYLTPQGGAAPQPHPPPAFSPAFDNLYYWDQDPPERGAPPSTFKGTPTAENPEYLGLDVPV
Chain of ErbB2 with Exon 20 YVMA insertion (HER2-YVMA) (P04626 other isoform, or with tags, fused parts or gaps ins YVMA behind 775): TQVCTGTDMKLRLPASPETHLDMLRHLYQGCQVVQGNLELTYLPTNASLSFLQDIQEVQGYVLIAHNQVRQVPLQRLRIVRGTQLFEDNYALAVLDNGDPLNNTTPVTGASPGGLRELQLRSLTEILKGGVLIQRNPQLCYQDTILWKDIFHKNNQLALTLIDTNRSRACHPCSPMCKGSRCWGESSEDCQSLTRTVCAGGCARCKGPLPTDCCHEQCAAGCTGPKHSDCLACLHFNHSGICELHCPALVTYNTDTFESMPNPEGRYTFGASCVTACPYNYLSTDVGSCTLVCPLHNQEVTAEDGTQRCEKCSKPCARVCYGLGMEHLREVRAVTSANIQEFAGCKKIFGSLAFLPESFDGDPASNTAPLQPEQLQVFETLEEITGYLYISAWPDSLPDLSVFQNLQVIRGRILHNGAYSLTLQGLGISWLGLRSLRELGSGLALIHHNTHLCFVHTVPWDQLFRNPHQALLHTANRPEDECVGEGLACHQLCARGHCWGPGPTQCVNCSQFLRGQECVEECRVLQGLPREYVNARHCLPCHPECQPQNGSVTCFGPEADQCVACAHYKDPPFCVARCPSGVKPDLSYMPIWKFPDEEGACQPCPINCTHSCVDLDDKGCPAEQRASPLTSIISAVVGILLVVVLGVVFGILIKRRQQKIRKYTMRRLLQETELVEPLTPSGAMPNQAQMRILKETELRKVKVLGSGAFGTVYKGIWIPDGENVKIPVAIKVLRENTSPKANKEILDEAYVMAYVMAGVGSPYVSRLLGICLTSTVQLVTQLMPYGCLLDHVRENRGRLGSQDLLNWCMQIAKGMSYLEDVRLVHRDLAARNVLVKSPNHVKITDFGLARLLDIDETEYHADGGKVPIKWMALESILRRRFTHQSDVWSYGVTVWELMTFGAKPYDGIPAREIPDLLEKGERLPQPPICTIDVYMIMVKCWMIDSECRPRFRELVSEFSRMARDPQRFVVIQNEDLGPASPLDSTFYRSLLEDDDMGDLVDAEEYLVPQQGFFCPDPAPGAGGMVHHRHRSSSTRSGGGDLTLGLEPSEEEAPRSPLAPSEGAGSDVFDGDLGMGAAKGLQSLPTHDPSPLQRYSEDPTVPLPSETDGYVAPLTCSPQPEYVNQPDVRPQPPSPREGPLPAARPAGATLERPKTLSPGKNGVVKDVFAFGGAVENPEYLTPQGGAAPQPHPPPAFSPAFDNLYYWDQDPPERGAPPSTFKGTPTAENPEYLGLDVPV
Chain of EGFR (P00533 25-1210): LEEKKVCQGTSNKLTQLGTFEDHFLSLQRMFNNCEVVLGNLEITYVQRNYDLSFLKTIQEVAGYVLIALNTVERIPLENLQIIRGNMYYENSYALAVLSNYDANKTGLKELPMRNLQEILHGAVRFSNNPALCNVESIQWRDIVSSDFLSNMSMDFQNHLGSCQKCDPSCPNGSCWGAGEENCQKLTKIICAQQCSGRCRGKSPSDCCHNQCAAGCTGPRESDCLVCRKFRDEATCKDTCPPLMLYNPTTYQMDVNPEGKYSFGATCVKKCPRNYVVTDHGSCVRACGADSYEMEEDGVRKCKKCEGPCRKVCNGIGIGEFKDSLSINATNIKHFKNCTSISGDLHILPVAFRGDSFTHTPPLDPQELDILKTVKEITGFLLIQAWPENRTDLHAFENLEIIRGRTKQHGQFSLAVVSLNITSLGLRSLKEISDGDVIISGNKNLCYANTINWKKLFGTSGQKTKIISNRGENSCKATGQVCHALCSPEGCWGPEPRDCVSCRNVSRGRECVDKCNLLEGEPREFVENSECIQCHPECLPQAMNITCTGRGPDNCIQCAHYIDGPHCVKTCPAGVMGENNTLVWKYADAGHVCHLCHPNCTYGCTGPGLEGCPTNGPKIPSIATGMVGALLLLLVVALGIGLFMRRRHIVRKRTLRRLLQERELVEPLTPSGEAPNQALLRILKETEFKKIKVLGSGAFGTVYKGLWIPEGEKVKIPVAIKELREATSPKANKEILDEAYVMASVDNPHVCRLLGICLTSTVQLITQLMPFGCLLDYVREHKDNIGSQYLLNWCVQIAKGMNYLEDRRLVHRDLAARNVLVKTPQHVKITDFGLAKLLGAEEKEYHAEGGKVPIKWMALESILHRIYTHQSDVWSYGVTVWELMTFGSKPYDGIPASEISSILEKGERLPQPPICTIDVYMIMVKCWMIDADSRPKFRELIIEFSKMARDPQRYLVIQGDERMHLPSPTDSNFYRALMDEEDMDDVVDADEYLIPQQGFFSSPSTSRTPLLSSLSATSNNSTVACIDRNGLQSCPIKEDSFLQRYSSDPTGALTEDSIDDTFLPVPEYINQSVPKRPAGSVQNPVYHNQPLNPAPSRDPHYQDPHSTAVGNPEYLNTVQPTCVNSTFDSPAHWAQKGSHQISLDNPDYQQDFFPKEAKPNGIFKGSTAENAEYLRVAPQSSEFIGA
Chain of EGFR wild type (EGFR WT) (P00533 25-1210): as above

As to `CON(C)c1ncc2ncnc(Nc3ccc(Oc4ccc5c(c4)ncn5C)c(C)c3)c2n1` [Example 22, 6-(methoxy(methyl)amino)-N-(3-methyl-4-((1-methyl-1H-benzo[d]imidazol-5-yl)oxy)phenyl)pyrimido[5,4-d]pyrimidin-4-amine], the 50% inhibitory concentration (IC50) (usually the midpoint of a concentration-inhibition curve) was 25.5 nM in assay [1] (read-out: Assay 1 IC50); 52.4 nM in assay [2]; 8700 nM in assay [3]; 13 nM in assay [4]; at least 5000 nM in assay [5].

As to `Cc1cc(Nc2ncnc3cnc(N4CC5(COC5)C4)nc23)ccc1Oc1ccc2c(c1)ncn2C` [Example 26, N-(3-methyl-4-((1-methyl-1H-benzo[d]imidazol-5-yl)oxy)phenyl)-6-(2-oxa-6-azaspiro[3.3]heptan-6-yl)pyrimido[5,4-d]pyrimidin-4-amine], the IC50 in assay [1] (read-out: Assay 1 IC50) was 85.6 nM; in assay [2], 507 nM; in assay [3], at least 10000 nM; in assay [4] it was 62.2 nM; in assay [5], at least 5000 nM.

Turning to `Cc1cc(Nc2ncnc3cnc(N4CCC45COC5)nc23)ccc1Oc1ccc2c(c1)ncn2C` [Example 27, N-(3-methyl-4-((1-methyl-1H-benzo[d]imidazol-5-yl)oxy)phenyl)-6-(6-oxa-1-azaspiro[3.3]heptan-1-yl)pyrimido[5,4-d]pyrimidin-4-amine], the IC50 is 20 nM in assay [1] (read-out: Assay 1 IC50); 50.8 nM in assay [2]; at least 10000 nM in assay [3]; 9.3 nM in assay [4]; at least 5000 nM in assay [5].

On to `Cc1cc(Nc2ncnc3cnc(N4CCN(C)S4(=O)=O)nc23)ccc1Oc1ccc2c(c1)ncn2C` [Example 29, 2-methyl-5-(8-((3-methyl-4-((1-methyl-1H-benzo[d]imidazol-5-yl)oxy)phenyl)amino)pyrimido[5,4-d]pyrimidin-2-yl)-1,2,5-thiadiazolidine 1,1-dioxide], for which the IC50 in assay [1] (read-out: Assay 1 IC50) was 37.8 nM; in assay [2] it was 65.9 nM; in assay [3], at least 10000 nM; in assay [4] it was 20.6 nM; in assay [5], at least 5000 nM.

Consider `Cc1cc(Nc2ncnc3cnc(NC4CC(F)(F)C4)nc23)ccc1Oc1ccc2c(c1)ncn2C` [Example 30, N2-(3,3-difluorocyclobutyl)-N8-(3-methyl-4-((1-methyl-1H-benzo[d]imidazol-5-yl)oxy)phenyl)pyrimido[5,4-d]pyrimidine-2,8-diamine], for which the half-maximal inhibitory concentration (IC50) in assay [1] (read-out: Assay 1 IC50) was 104 nM; in assay [2], 196 nM; in assay [3], at least 10000 nM; in assay [4] it was 165 nM; in assay [5], at least 5000 nM.

As for `Cc1cc(Nc2ncnc3cnc(N4CC(F)(F)C4)nc23)ccc1Oc1ccc2c(c1)ncn2C` [Example 38, 6-(3,3-difluoroazetidin-1-yl)-N-(3-methyl-4-((1-methyl-1H-benzo[d]imidazol-5-yl)oxy)phenyl)pyrimido[5,4-d]pyrimidin-4-amine], the half-maximal inhibitory concentration (IC50) was 183 nM in assay [1] (read-out: Assay 1 IC50); 403 nM in assay [2]; at least 10000 nM in assay [3]; 65.1 nM in assay [4]; at least 5000 nM in assay [5].

As to `Cc1ncc(-c2ncc3ncnc(Nc4ccc(Oc5ccc6c(c5)ncn6C)c(C)c4)c3n2)s1` [Example 42, N-(3-methyl-4-((1-methyl-1H-benzo[d]imidazol-5-yl)oxy)phenyl)-6-(2-methylthiazol-5-yl)pyrimido[5,4-d]pyrimidin-4-amine], the IC50 in assay [1] (read-out: Assay 1 IC50) is 58.2 nM; in assay [2], 176 nM; in assay [3], at least 10000 nM; in assay [4], 16.8 nM; in assay [5], at least 5000 nM.

As for `Cc1cc(Nc2ncnc3cnc(N4CCC4)nc23)ccc1Oc1ccc2scnc2c1` [Example 44, 6-(azetidin-1-yl)-N-(4-(benzo[d]thiazol-5-yloxy)-3-methylphenyl)pyrimido[5,4-d]pyrimidin-4-amine 2,2,2-trifluoroacetate], the half-maximal inhibitory concentration (IC50) was 103 nM in assay [1] (read-out: Assay 1 IC50); 315 nM in assay [2]; 3310 nM in assay [3]; 70.6 nM in assay [4]; at least 5000 nM in assay [5].

Take `CCOc1ncc2ncnc(Nc3ccc(Oc4ccc5scnc5c4)c(C)c3)c2n1` [Example 46, N-(4-(benzo[d]thiazol-5-yloxy)-3-methylphenyl)-6-ethoxpyrimido[5,4-d]pyrimidin-4-amine 2,2,2-trifluoroacetate]: the IC50 in assay [1] (read-out: Assay 1 IC50) is 95.2 nM; in assay [2], 760 nM; in assay [3], 4250 nM; in assay [4], 566 nM; in assay [5], at least 5000 nM.

Take `Cc1cc(Nc2ncnc3cnc(N4CCOC5(CC5)C4)nc23)ccc1Oc1ccc2c(c1)ncn2C` [Example 58, N-(3-methyl-4-((1-methyl-1H-benzo[d]imidazol-5-yl)oxy)phenyl)-6-(4-oxa-7-azaspiro[2.5]octan-7-yl)pyrimido[5,4-d]pyrimidin-4-amine]: the half-inhibitory concentration (IC50) in assay [1] (read-out: Assay 1 IC50) was 62.5 nM; in assay [2], 123 nM; in assay [3], at least 10000 nM; in assay [4] it was 10.6 nM; in assay [5], at least 5000 nM.

In the case of `COC[C@@H](C)Nc1ncc2ncnc(Nc3ccc(Oc4ccc5c(c4)ncn5C)c(C)c3)c2n1` [Example 61, (R)—N2-(1-methoxypropan-2-yl)-N8-(3-methyl-4-((1-methyl-1H-benzo[d]imidazol-5-yl)oxy)phenyl)pyrimido[5,4-d]pyrimidine-2,8-diamine], the half-inhibitory concentration (IC50) is 36.9 nM in assay [1] (read-out: Assay 1 IC50); 107 nM in assay [2]; at least 10000 nM in assay [3]; 49.5 nM in assay [4]; at least 5000 nM in assay [5].

For the compound `COC[C@H](C)Nc1ncc2ncnc(Nc3ccc(Oc4ccc5c(c4)ncn5C)c(C)c3)c2n1` [Example 62, (S)—N2-(1-methoxypropan-2-yl)-N8-(3-methyl-4-((1-methyl-1H-benzo[d]imidazol-5-yl)oxy)phenyl)pyrimido[5,4-d]pyrimidine-2,8-diamine], the IC50 in assay [1] (read-out: Assay 1 IC50) is 39.8 nM; in assay [2], 112 nM; in assay [3] it was at least 10000 nM; in assay [4], 27.1 nM; in assay [5], at least 5000 nM.

Turning to `Cc1c(Oc2ccc3c(c2)ncn3C)ccc(Nc2ncnc3cnc(N(C)C)nc23)c1F` [Example 71, N8-(2-fluoro-3-methyl-4-((1-methyl-1H-benzo[d]imidazol-5-yl)oxy)phenyl)-N2,N2-dimethylpyrimido[5,4-d]pyrimidine-2,8-diamine 2,2,2-trifluoroacetate], the IC50 in assay [1] (Assay 1 IC50 (nM)) was 70.2 nM; in assay [2], 299 nM; in assay [3] it was at least 10000 nM; in assay [4], 76.6 nM; in assay [5] it was at least 5000 nM.

As to `Cc1cc(Nc2ncnc3cnc(N4CCOCC4)nc23)ccc1Oc1ccc2c(c1)ncn2C1CC1` [Example 73, N-(4-((1-cyclopropyl-1H-benzo[d]imidazol-5-yl)oxy)-3-methylphenyl)-6-morpholinopyrimido[5,4-d]pyrimidin-4-amine 2,2,2-trifluoroacetate], the half-inhibitory concentration (IC50) in assay [1] (Assay 1 IC50 (nM)) is 78 nM; in assay [2], 163 nM; in assay [3], at least 10000 nM; in assay [4], 47.5 nM; in assay [5], at least 5000 nM.

With `Cc1cc(Nc2ncnc3cnc(N4CCN(CC(F)(F)F)CC4)nc23)ccc1Oc1ccc2c(c1)ncn2C` [Example 85, N-(3-methyl-4-((1-methyl-1H-benzo[d]imidazol-5-yl)oxy)phenyl)-6-(4-(2,2,2-trifluoroethyl)piperazin-1-yl)pyrimido[5,4-d]pyrimidin-4-amine], the IC50 in assay [1] (read-out: Assay 1 IC50) was 204 nM; in assay [2], 726 nM; in assay [3], at least 10000 nM; in assay [4] it was 130 nM; in assay [5], at least 5000 nM.

As to `Cc1cc(Nc2ncnc3cnc(O[C@@H]4CN(C)C[C@@H]4F)nc23)ccc1Oc1ccc2c(c1)ncn2C` [Example 87, 6-(((3R,4S)-4-fluoro-1-methylpyrrolidin-3-yl)oxy)-N-(3-methyl-4-((1-methyl-1H-benzo[d]imidazol-5-yl)oxy)phenyl)pyrimido[5,4-d]pyrimidin-4-amine], the half-maximal inhibitory concentration (IC50) in assay [1] (read-out: Assay 1 IC50) was 69.5 nM; in assay [2], 346 nM; in assay [3] it was at least 10000 nM; in assay [4], 95.1 nM; in assay [5], at least 5000 nM.
